{"source": "ChEMBL document CHEMBL1201862", "about": "“PubChem BioAssay data set” (2004)", "assay_in_all_cases": "NCI anticancer screen, dose series, 48 h", "key": {"COLO 205": {"test_system": "COLO 205"}, "A498": {"test_system": "A498"}, "MDA-MB-435": {"test_system": "MDA-MB-435"}, "NCI-H226": {"test_system": "NCI-H226"}, "SNB-75": {"test_system": "SNB-75"}, "SK-OV-3": {"test_system": "SK-OV-3"}, "SK-MEL-5": {"test_system": "SK-MEL-5"}, "NCI-H23": {"test_system": "NCI-H23"}, "HCT-15": {"test_system": "HCT-15"}, "M14": {"test_system": "M14"}, "MCF7": {"test_system": "MCF7"}, "HCT-116": {"test_system": "HCT-116"}, "PC-3": {"test_system": "PC-3"}, "SF-539": {"test_system": "SF-539"}, "NCI/ADR-RES": {"test_system": "NCI/ADR-RES"}, "SK-MEL-28": {"test_system": "SK-MEL-28"}, "OVCAR-8": {"test_system": "OVCAR-8"}, "786-0": {"test_system": "786-0"}, "DU-145": {"test_system": "DU-145"}, "OVCAR-5": {"test_system": "OVCAR-5"}, "KM12": {"test_system": "KM12"}, "HOP-62": {"test_system": "HOP-62"}, "A549": {"test_system": "A549"}, "IGROV-1": {"test_system": "IGROV-1"}, "SNB-19": {"test_system": "SNB-19"}, "LOX IMVI": {"test_system": "LOX IMVI"}, "T47D": {"test_system": "T47D"}, "UACC-257": {"test_system": "UACC-257"}, "Hs-578T": {"test_system": "Hs-578T"}, "HT-29": {"test_system": "HT-29"}, "ACHN": {"test_system": "ACHN"}, "EKVX": {"test_system": "EKVX"}, "HOP-92": {"test_system": "HOP-92"}, "UO-31": {"test_system": "UO-31"}, "SF-295": {"test_system": "SF-295"}, "MOLT-4": {"test_system": "MOLT-4"}, "SN12C": {"test_system": "SN12C"}, "SW-620": {"test_system": "SW-620"}, "NCI-H460": {"test_system": "NCI-H460"}, "MDA-MB-231": {"test_system": "MDA-MB-231"}, "SR": {"test_system": "SR"}, "OVCAR-3": {"test_system": "OVCAR-3"}, "U-251": {"test_system": "U-251"}, "HL-60": {"test_system": "HL-60"}, "Malme-3M": {"test_system": "Malme-3M"}, "CAKI-1": {"test_system": "CAKI-1"}, "BT-549": {"test_system": "BT-549"}, "CCRF-CEM": {"test_system": "CCRF-CEM"}, "SF-268": {"test_system": "SF-268"}, "TK-10": {"test_system": "TK-10"}, "RPMI-8226": {"test_system": "RPMI-8226"}, "NCI-H522": {"test_system": "NCI-H522"}, "K562": {"test_system": "K562"}, "OVCAR-4": {"test_system": "OVCAR-4"}, "UACC-62": {"test_system": "UACC-62"}, "SK-MEL-2": {"test_system": "SK-MEL-2"}}, "note": "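Values below derive from 48-hour exposures of cells grown in 96-well plates, with endpoints linearly interpolated between the two concentrations bracketing the appropriate inhibition level. GI50 marks 50% less growth.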 Activity calls are given as the source filed them. Cut-off read from the data, not from the text of the source: active = GI50 up to about 1.1 µM and inactive = higher.", "data": [{"compound": "COc1cc(-c2c3c(cc4c2OCO4)[C@@H](Nc2ccc(-c4ccc(-c5ccc(N[C@@H]6c7cc8c(cc7C(c7cc(OC)c(O)c(OC)c7)[C@H]7C(=O)OC[C@H]67)OCO8)cc5)cc4)cc2)[C@H]2COC(=O)[C@@H]2C3)cc(OC)c1O", "note": "(stereo partly specified)", "values": [{"measurement": "GI50", "setting": "COLO 205", "value": "1.7 µM (inactive)"}, {"measurement": "GI50", "setting": "A498", "value": "4.62 µM (inactive)"}, {"measurement": "GI50", "setting": "MDA-MB-435", "value": "1.69 µM (inactive)"}, {"measurement": "GI50", "setting": "NCI-H226", "value": "2.09 µM (inactive)"}, {"measurement": "GI50", "setting": "SNB-75", "value": "< 0.01 µM (active)"}, {"measurement": "GI50", "setting": "SK-OV-3", "value": "2.65 µM (inactive)"}, {"measurement": "GI50", "setting": "SK-MEL-5", "value": "2.28 µM (inactive)"}, {"measurement": "GI50", "setting": "NCI-H23", "value": "5.13 µM (inactive)"}, {"measurement": "GI50", "setting": "HCT-15", "value": 1.73, "unit": "µM"}, {"measurement": "GI50", "setting": "M14", "value": "1.95 µM (inactive)"}, {"measurement": "GI50", "setting": "MCF7", "value": "2.82 µM (inactive)"}, {"measurement": "GI50", "setting": "HCT-116", "value": "1.73 µM (inactive)"}, {"measurement": "GI50", "setting": "PC-3", "value": "2.04 µM (inactive)"}, {"measurement": "GI50", "setting": "SF-539", "value": "< 0.01 µM (active)"}, {"measurement": "GI50", "setting": "NCI/ADR-RES", "value": "1.85 µM (inactive)"}, {"measurement": "GI50", "setting": "SK-MEL-28", "value": "1.85 µM (inactive)"}, {"measurement": "GI50", "setting": "OVCAR-8", "value": "1.61 µM (inactive)"}, {"measurement": "GI50", "setting": "786-0", "value": "1.76 µM (inactive)"}, {"measurement": "GI50", "setting": "DU-145", "value": "1.93 µM (inactive)"}, {"measurement": "GI50", "setting": "OVCAR-5", "value": "4.39 µM (inactive)"}, {"measurement": "GI50", "setting": "KM12", "value": "1.85 µM (inactive)"}, {"measurement": "GI50", "setting": "HOP-62", "value": "2.58 µM (inactive)"}, {"measurement": "GI50", "setting": "A549", "value": "3.22 µM (inactive)"}, {"measurement": "GI50", "setting": "IGROV-1", "value": "1.1 µM (active)"}, {"measurement": "GI50", "setting": "SNB-19", "value": "2.96 µM (inactive)"}, {"measurement": "GI50", "setting": "LOX IMVI", "value": "4.13 µM (inactive)"}, {"measurement": "GI50", "setting": "T47D", "value": "4.93 µM (inactive)"}, {"measurement": "GI50", "setting": "UACC-257", "value": "10.6 µM (inactive)"}, {"measurement": "GI50", "setting": "Hs-578T", "value": "2.6 µM (inactive)"}, {"measurement": "GI50", "setting": "HT-29", "value": "2.31 µM (inactive)"}, {"measurement": "GI50", "setting": "ACHN", "value": "2.24 µM (inactive)"}, {"measurement": "GI50", "setting": "EKVX", "value": "4.51 µM (inactive)"}, {"measurement": "GI50", "setting": "HOP-92", "value": "4.55 µM (inactive)"}, {"measurement": "GI50", "setting": "UO-31", "value": "3.13 µM (inactive)"}, {"measurement": "GI50", "setting": "SF-295", "value": "1.77 µM (inactive)"}, {"measurement": "GI50", "setting": "MOLT-4", "value": "3.1 µM (inactive)"}, {"measurement": "GI50", "setting": "SN12C", "value": "5.21 µM (inactive)"}, {"measurement": "GI50", "setting": "SW-620", "value": "2.7 µM (inactive)"}, {"measurement": "GI50", "setting": "NCI-H460", "value": "3.05 µM (inactive)"}, {"measurement": "GI50", "setting": "MDA-MB-231", "value": "2.19 µM (inactive)"}, {"measurement": "GI50", "setting": "SR", "value": "2.2 µM (inactive)"}, {"measurement": "GI50", "setting": "OVCAR-3", "value": "2.36 µM (inactive)"}, {"measurement": "GI50", "setting": "U-251", "value": "3.09 µM (inactive)"}, {"measurement": "GI50", "setting": "HL-60", "value": "2.4 µM (inactive)"}, {"measurement": "GI50", "setting": "Malme-3M", "value": "1.87 µM (inactive)"}, {"measurement": "GI50", "setting": "CAKI-1", "value": "2.65 µM (inactive)"}, {"measurement": "GI50", "setting": "BT-549", "value": "2.84 µM (inactive)"}, {"measurement": "GI50", "setting": "CCRF-CEM", "value": "3.13 µM (inactive)"}, {"measurement": "GI50", "setting": "SF-268", "value": "2.33 µM (inactive)"}, {"measurement": "GI50", "setting": "TK-10", "value": "2.38 µM (inactive)"}, {"measurement": "GI50", "setting": "RPMI-8226", "value": "2.52 µM (inactive)"}]}, {"compound": "Cc1cccc(N2C(=O)C3c4[nH]c5ccc(C)cc5c4C4CCC(C(C)(C)C)CC4C3C2=O)c1", "note": "(stereo unspecified)", "values": [{"measurement": "GI50", "setting": "COLO 205", "value": "17.4 µM (inactive)"}, {"measurement": "GI50", "setting": "MDA-MB-435", "value": "40.9 µM (inactive)"}, {"measurement": "GI50", "setting": "NCI-H226", "value": "17.1 µM (inactive)"}, {"measurement": "GI50", "setting": "SK-MEL-5", "value": "32.5 µM (inactive)"}, {"measurement": "GI50", "setting": "NCI-H23", "value": "26.1 µM (inactive)"}, {"measurement": "GI50", "setting": "HCT-15", "value": 53.7, "unit": "µM"}, {"measurement": "GI50", "setting": "M14", "value": "20.2 µM (inactive)"}, {"measurement": "GI50", "setting": "PC-3", "value": "13.7 µM (inactive)"}, {"measurement": "GI50", "setting": "NCI/ADR-RES", "value": "17.6 µM (inactive)"}, {"measurement": "GI50", "setting": "SK-MEL-28", "value": "42.6 µM (inactive)"}, {"measurement": "GI50", "setting": "OVCAR-8", "value": "19 µM (inactive)"}, {"measurement": "GI50", "setting": "NCI-H522", "value": "19.9 µM (inactive)"}, {"measurement": "GI50", "setting": "DU-145", "value": "16.1 µM (inactive)"}, {"measurement": "GI50", "setting": "OVCAR-5", "value": "32.7 µM (inactive)"}, {"measurement": "GI50", "setting": "KM12", "value": "15.8 µM (inactive)"}, {"measurement": "GI50", "setting": "HOP-62", "value": "15.8 µM (inactive)"}, {"measurement": "GI50", "setting": "A549", "value": "15.8 µM (inactive)"}, {"measurement": "GI50", "setting": "IGROV-1", "value": "26.5 µM (inactive)"}, {"measurement": "GI50", "setting": "SNB-19", "value": "25.2 µM (inactive)"}, {"measurement": "GI50", "setting": "LOX IMVI", "value": "17.2 µM (inactive)"}, {"measurement": "GI50", "setting": "T47D", "value": "14.3 µM (inactive)"}, {"measurement": "GI50", "setting": "UACC-257", "value": "46.3 µM (inactive)"}, {"measurement": "GI50", "setting": "HT-29", "value": "21.4 µM (inactive)"}, {"measurement": "GI50", "setting": "K562", "value": "23.9 µM (inactive)"}, {"measurement": "GI50", "setting": "EKVX", "value": "10.4 µM (inactive)"}, {"measurement": "GI50", "setting": "HOP-92", "value": "15.7 µM (inactive)"}, {"measurement": "GI50", "setting": "UO-31", "value": "43.4 µM (inactive)"}, {"measurement": "GI50", "setting": "SF-295", "value": "19.4 µM (inactive)"}, {"measurement": "GI50", "setting": "OVCAR-4", "value": "23.1 µM (inactive)"}, {"measurement": "GI50", "setting": "MOLT-4", "value": "8.97 µM (inactive)"}, {"measurement": "GI50", "setting": "UACC-62", "value": "23.3 µM (inactive)"}, {"measurement": "GI50", "setting": "SW-620", "value": "21 µM (inactive)"}, {"measurement": "GI50", "setting": "NCI-H460", "value": "13.3 µM (inactive)"}, {"measurement": "GI50", "setting": "MDA-MB-231", "value": "18.8 µM (inactive)"}, {"measurement": "GI50", "setting": "OVCAR-3", "value": "13.6 µM (inactive)"}, {"measurement": "GI50", "setting": "U-251", "value": "23.6 µM (inactive)"}, {"measurement": "GI50", "setting": "SK-MEL-2", "value": "38.1 µM (inactive)"}, {"measurement": "GI50", "setting": "HL-60", "value": "17.7 µM (inactive)"}, {"measurement": "GI50", "setting": "Malme-3M", "value": "24.3 µM (inactive)"}, {"measurement": "GI50", "setting": "CAKI-1", "value": "31.6 µM (inactive)"}, {"measurement": "GI50", "setting": "BT-549", "value": "27.4 µM (inactive)"}, {"measurement": "GI50", "setting": "CCRF-CEM", "value": "21.4 µM (inactive)"}, {"measurement": "GI50", "setting": "SF-268", "value": "15.5 µM (inactive)"}, {"measurement": "GI50", "setting": "TK-10", "value": "24.6 µM (inactive)"}, {"measurement": "GI50", "setting": "RPMI-8226", "value": "15.5 µM (inactive)"}]}]}
